Laboratory results: patent publication US9849130B2 (KamTek, Inc., priority 2014, dated 2017)
≈ marks a conversion by molar mass, not a printed value. Like-named read-outs stand apart in the source and are kept apart here.

What was measured:
C. difficile = experiment: Minimum bactericidal concentration (MBC) against C. difficile; assay type: cell-based, Clostridium difficile
[1] = tested on: Clostridium difficile (CD) strains; experiment: microbe, parasite or virus in culture; assay type: cell-based
Bifidobacterium strains = experiment: MIC by microdilution in BHI broth against Bifidobacterium strains; assay type: cell-based, Bifidobacterium spp.; details: Bifidobacterium
Fusobacterium = experiment: MIC by microdilution in Brucella broth against Fusobacterium; assay type: cell-based, Fusobacterium spp.
Lactobacillus strains = experiment: MIC against Lactobacillus strains; assay type: cell-based, Lactobacillus spp.
Enterococci faecium = experiment: MIC by microdilution in Mueller-Hinton broth against Enterococci faecium strains; assay type: cell-based, Enterococcus faecium
Escherichia coli strains = experiment: MIC by microdilution in Mueller-Hinton broth against Escherichia coli strains; assay type: cell-based
C. difficile VPI10463 = details: Clostridioides difficile, C. difficile VPI10463
[2] = tested on: Lachnospiraceae and related bacterial strains; experiment: MIC against Lachnospiraceae and related bacterial strains; assay type: cell-based, Lachnospiraceae spp.
[3] = tested on: Staphylococcus aureus strains; experiment: MIC by microdilution in Mueller-Hinton broth against Staphylococcus aureus strains; assay type: cell-based; details: Staphylococcus aureus
Enterococcus faecalis = experiment: MIC by microdilution in Mueller-Hinton broth against Enterococcus faecalis strains; assay type: cell-based; details: Enterococcus faecalis
C. perfringens MH310 = experiment: microbe, parasite or virus in culture; assay type: cell-based
CD strains = experiment: In vitro activity of CFM + additional antimicrobial agent against CD (MIC alone/combination, FIC, ΣFIC); assay type: cell-based, Clostridium difficile; details: CFM + VAN; for MIC: Clostridioides difficile
[4] = Clostridioides difficile, BAA1805
[5] = Test 13, CD strain BAA1805 (BI/NAP1/027)
[6] = Test 16, CD strain BAA1805 (BI/NAP1/027)

With CN[C@H](CC(C)C)C(=O)N[C@H]1C(=O)N[C@@H](CC(N)=O)C(=O)N[C@H]2C(=O)N[C@H]3C(=O)N[C@H](C(=O)N[C@H](C(=O)O)c4cc(O)cc(O)c4-c4cc3ccc4O)[C@H](O)c3ccc(c(Cl)c3)Oc3cc2cc(c3O[C@@H]2O[C@H](CO)[C@@H](O)[C@H](O)[C@H]2O[C@H]2C[C@](C)(N)[C@H](O)[C@H](C)O2)Oc2ccc(cc2Cl)[C@H]1O [VAN, vancomycin] the MBC/MIC ratio range (C. difficile) was 1-4, the MBC (C. difficile; [4]) was 2 µg/mL (≈ 1.38 µM) and the “MIC Range” value [1] was 0.25 to 2.0 µg/mL. The MIC50 ([1]; Clostridioides difficile) was 0.5 µg/mL (≈ 0.345 µM), the MIC90 ([1]; Clostridioides difficile) was 2 µg/mL (≈ 1.38 µM) and the MIC [1, 4] was 1 µg/mL (≈ 0.69 µM). For the same molecule, the MIC (Bifidobacterium strains) was 0.25 µg/mL (≈ 0.173 µM), the MIC (Fusobacterium) was over 32 µg/mL and the MIC (Fusobacterium; Fusobacterium) was over 32 µg/mL. The “in vitro activity against Lactobacillus spp. (in words)” value (Lactobacillus strains) was “six strains susceptible and four resistant”, the MIC (Enterococci faecium; E. faecium NR 31909, Mueller-Hinton broth) was over 32 µg/mL and the MIC (Enterococci faecium; E. faecium NR 31912, Mueller-Hinton broth) was over 32 µg/mL. The MIC (Enterococci faecium; E. faecium NR 31915, Mueller-Hinton broth) was over 32 µg/mL, the MIC (Enterococci faecium; E. faecium NR 31916, Mueller-Hinton broth) was over 32 µg/mL and the MIC (Enterococci faecium; Enterococcus faecium) was over 32 µg/mL. It also gave an MIC (Escherichia coli strains; E. coli NR 6, Mueller-Hinton broth) of over 32 µg/mL, an MIC (Escherichia coli strains; E. coli NR 8, Mueller-Hinton broth) of over 32 µg/mL and an MIC (Escherichia coli strains; E. coli NR 96, Mueller-Hinton broth) of over 32 µg/mL. The MIC (Escherichia coli strains; E. coli NR 104, Mueller-Hinton broth) was over 32 µg/mL, the MIC (Escherichia coli strains; E. coli NR 17626, Mueller-Hinton broth) was over 32 µg/mL and the MIC (Escherichia coli strains; E. coli NR 17627, Mueller-Hinton broth) was over 32 µg/mL. It also gave an MIC (Escherichia coli strains; E. coli NR 17633, Mueller-Hinton broth) of over 32 µg/mL, an MIC (Escherichia coli strains; E. coli NR 17647, Mueller-Hinton broth) of over 32 µg/mL and an MIC (Escherichia coli strains; E. coli NR 17650, Mueller-Hinton broth) of over 32 µg/mL. It also gave an MIC (Escherichia coli strains; E. coli NR 17661, Mueller-Hinton broth) of over 32 µg/mL, an MIC (Escherichia coli strains; Escherichia coli) of over 32 µg/mL and an MIC (Escherichia coli strains; Escherichia coli strain NR 6, Mueller-Hinton broth) of over 32 µg/mL. The MIC (Escherichia coli strains; Escherichia coli strain NR 8, Mueller-Hinton broth) was over 32 µg/mL, the MIC (Escherichia coli strains; Escherichia coli strain NR 96, Mueller-Hinton broth) was over 32 µg/mL and the MIC (Escherichia coli strains; Escherichia coli strain NR 17626, Mueller-Hinton broth) was over 32 µg/mL. The MIC (Escherichia coli strains; Escherichia coli strain NR 17627, Mueller-Hinton broth) was over 32 µg/mL, the MIC (Escherichia coli strains; Escherichia coli strain NR 17633, Mueller-Hinton broth) was over 32 µg/mL and the MIC (Escherichia coli strains; Escherichia coli strain NR 17647, Mueller-Hinton broth) was over 32 µg/mL. It also gave an MIC (Escherichia coli strains; Escherichia coli strain NR 17650, Mueller-Hinton broth) of over 32 µg/mL, an MIC (Escherichia coli strains; Escherichia coli strain NR 17661, Mueller-Hinton broth) of over 32 µg/mL and an MIC (C. difficile VPI10463; VPI10463, Expt. 1, fecal extract (human feces 20% w/v in BHI)) of 1 µg/mL (≈ 0.69 µM). It also gave an MIC (C. difficile VPI10463; VPI10463, Expt. 1, −fecal extract) of 0.5 µg/mL (≈ 0.345 µM), an MIC (C. difficile VPI10463; VPI10463, Expt. 2, +fecal extract (human feces 20% w/v in BHI)) of 0.5 µg/mL (≈ 0.345 µM) and an MIC (C. difficile VPI10463; VPI10463, Expt. 2, −fecal extract) of 0.5 µg/mL (≈ 0.345 µM). For the same molecule, the “susceptibility of Lachnospiraceae and related organisms (in words)” value [2] was “susceptible”, the MIC ([2]; Clostridiales bacterium) was 0.25 µg/mL (≈ 0.173 µM) and the MIC ([3]; S. aureus NR 10129) was 1 µg/mL (≈ 0.69 µM). For the same molecule, the MIC ([3]; S. aureus NR 10186) was 1 µg/mL (≈ 0.69 µM), the MIC ([3]; S. aureus NR 10187) was 2 µg/mL (≈ 1.38 µM) and the MIC ([3]; S. aureus NR 10188) was 1 µg/mL (≈ 0.69 µM). It also gave an MIC ([3]; S. aureus NR 10189) of 2 µg/mL (≈ 1.38 µM), an MIC ([3]; S. aureus NR 10191) of 1 µg/mL (≈ 0.69 µM) and an MIC ([3]; S. aureus NR 10192) of 1 µg/mL (≈ 0.69 µM). For the same molecule, the MIC ([3]; S. aureus NR 10193) was 2 µg/mL (≈ 1.38 µM), the MIC ([3]; S. aureus NR 10194) was 1 µg/mL (≈ 0.69 µM) and the MIC ([3]; S. aureus NR 10198) was 2 µg/mL (≈ 1.38 µM). It also gave an MIC ([3]; Staphylococcus aureus strain NR 10129) of 1 µg/mL (≈ 0.69 µM), an MIC ([3]; Staphylococcus aureus strain NR 10186) of 1 µg/mL (≈ 0.69 µM) and an MIC ([3]; Staphylococcus aureus strain NR 10187) of 2 µg/mL (≈ 1.38 µM). For the same molecule, the MIC ([3]; Staphylococcus aureus strain NR 10188) was 1 µg/mL (≈ 0.69 µM), the MIC ([3]; Staphylococcus aureus strain NR 10189) was 2 µg/mL (≈ 1.38 µM) and the MIC ([3]; Staphylococcus aureus strain NR 10191) was 1 µg/mL (≈ 0.69 µM). The MIC ([3]; Staphylococcus aureus strain NR 10192) was 1 µg/mL (≈ 0.69 µM), the MIC ([3]; Staphylococcus aureus strain NR 10193) was 2 µg/mL (≈ 1.38 µM) and the MIC ([3]; Staphylococcus aureus strain NR 10194) was 1 µg/mL (≈ 0.69 µM). It also gave an MIC ([3]; Staphylococcus aureus strain NR 10198) of 2 µg/mL (≈ 1.38 µM), an MIC (Enterococcus faecalis; E. faecalis NR 31884) of 2 µg/mL (≈ 1.38 µM) and an MIC (Enterococcus faecalis; E. faecalis NR 31885) of 2 µg/mL (≈ 1.38 µM). It also gave an MIC (Enterococcus faecalis; E. faecalis NR 31886) of 1 µg/mL (≈ 0.69 µM), an MIC (Enterococcus faecalis; E. faecalis NR 31887) of 1 µg/mL (≈ 0.69 µM) and an MIC (Enterococcus faecalis; E. faecalis NR 31888) of 2 µg/mL (≈ 1.38 µM). It also gave an MIC (C. perfringens MH310) of 0.25 µg/mL (≈ 0.173 µM), an MIC (C. perfringens MH310; Clostridium perfringens, MH310) of 0.5 µg/mL (≈ 0.345 µM) and an MIC (CD strains; BAA1805, read-out: MIC alone, Test 13, CD strain BAA1805 (BI/NAP1/027)) of 0.5 µg/mL. It also gave an MIC (CD strains; BAA1805, read-out: MIC alone, Test 16, CD strain BAA1805 (BI/NAP1/027)) of 0.5 µg/mL, an MIC (CD strains; read-out: MIC alone, Test 1, CD strain VPI 10463) of 2 µg/mL and an MIC (CD strains; read-out: MIC alone, Test 2, CD strain VPI 10463) of 2 µg/mL. The MIC (CD strains; read-out: MIC alone, Test 5, CD strain NR32889) was 2 µg/mL, the MIC (CD strains; read-out: MIC alone, Test 6, CD strain NR32890) was 1 µg/mL and the MIC (CD strains; read-out: MIC alone, Test 7, CD strain NR32885) was 1 µg/mL. The MIC (CD strains; read-out: MIC alone, Test 9, CD strain NR32885) was 1 µg/mL, the MIC (CD strains; read-out: MIC alone, Test 11, CD strain NR32885) was 1 µg/mL and the MIC (CD strains; read-out: MIC alone, Test 18, CD strain NR32888) was 0.5 µg/mL. It also gave an MIC (CD strains; read-out: MIC alone, Test 20, CD strain NR32888) of 0.5 µg/mL, an FIC (CD strains; Test 1, CD strain VPI 10463) of 0.25 and an MIC combination (CD strains; Test 1, CD strain VPI 10463) of 0.5 µg/mL. The FIC (CD strains; Test 2, CD strain VPI 10463) was 0.25, the MIC combination (CD strains; Test 2, CD strain VPI 10463) was 0.5 µg/mL and the FIC (CD strains; Test 5, CD strain NR32889) was 1. For the same molecule, the MIC combination (CD strains; Test 5, CD strain NR32889) was 2 µg/mL, the FIC (CD strains; Test 6, CD strain NR32890) was 0.5 and the MIC combination (CD strains; Test 6, CD strain NR32890) was 0.5 µg/mL. It also gave an FIC (CD strains; Test 7, CD strain NR32885) of 0.5, an MIC combination (CD strains; Test 7, CD strain NR32885) of 0.5 µg/mL and an FIC (CD strains; Test 9, CD strain NR32885) of 0.25. It also gave an MIC combination (CD strains; Test 9, CD strain NR32885) of 0.25 µg/mL, an FIC (CD strains; Test 11, CD strain NR32885) of 0.25 and an MIC combination (CD strains; Test 11, CD strain NR32885) of 0.25 µg/mL. The FIC (CD strains; [5]) was 0.062, the MIC combination (CD strains; [5]) was 0.031 µg/mL and the FIC (CD strains; [6]) was 0.25. For the same molecule, the MIC combination (CD strains; [6]) was 0.125 µg/mL, the FIC (CD strains; Test 18, CD strain NR32888) was 0.5 and the MIC combination (CD strains; Test 18, CD strain NR32888) was 0.25 µg/mL. For the same molecule, the FIC (CD strains; Test 20, CD strain NR32888) was 0.5 and the MIC combination (CD strains; Test 20, CD strain NR32888) was 0.25 µg/mL.
